Values of other authors as cited in publication PMC3691235, “Discovery of a Novel Dual Fungal CYP51/Human 5-Lipoxygenase Inhibitor: Implications for Anti-Fungal Therapy” (PLoS ONE, 2013).

What was measured:
[1] = target: T1, Human leukocyte 5-lipoxygenase (Homo sapiens, UniProt P09917); conditions: ref [12], [13]; read-out: 5-LOX IC50; cited from earlier work
T1 construct: made in house
T1 sequence (P09917 1-674): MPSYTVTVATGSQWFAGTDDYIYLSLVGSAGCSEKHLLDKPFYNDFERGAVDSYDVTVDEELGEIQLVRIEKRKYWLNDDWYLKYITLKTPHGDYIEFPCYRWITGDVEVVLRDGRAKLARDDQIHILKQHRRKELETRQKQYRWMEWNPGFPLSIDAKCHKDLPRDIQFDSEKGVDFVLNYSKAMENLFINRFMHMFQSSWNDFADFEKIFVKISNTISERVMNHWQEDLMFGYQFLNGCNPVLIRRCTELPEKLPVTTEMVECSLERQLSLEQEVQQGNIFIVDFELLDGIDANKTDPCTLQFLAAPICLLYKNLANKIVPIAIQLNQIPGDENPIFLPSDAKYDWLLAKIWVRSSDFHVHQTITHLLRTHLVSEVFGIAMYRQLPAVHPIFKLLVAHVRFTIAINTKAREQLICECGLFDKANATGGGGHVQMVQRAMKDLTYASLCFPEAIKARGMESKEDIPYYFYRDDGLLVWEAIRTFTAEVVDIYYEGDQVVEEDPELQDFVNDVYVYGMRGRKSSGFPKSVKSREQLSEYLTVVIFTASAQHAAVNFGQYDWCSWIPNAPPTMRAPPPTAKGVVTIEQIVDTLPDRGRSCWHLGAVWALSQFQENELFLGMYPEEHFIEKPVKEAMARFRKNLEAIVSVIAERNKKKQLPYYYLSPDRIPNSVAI

[2] = target: T2, Homo sapiens CYP51 (HsCYP51) (Homo sapiens, UniProt Q16850); design: method as in PMID 20149798; conditions: ref [40]; read-out: Kd with HsCYP51, previously reported; cited from earlier work
T2 construct: made in house; host or cells: E. coli
T2 sequence (Q16850 1-509): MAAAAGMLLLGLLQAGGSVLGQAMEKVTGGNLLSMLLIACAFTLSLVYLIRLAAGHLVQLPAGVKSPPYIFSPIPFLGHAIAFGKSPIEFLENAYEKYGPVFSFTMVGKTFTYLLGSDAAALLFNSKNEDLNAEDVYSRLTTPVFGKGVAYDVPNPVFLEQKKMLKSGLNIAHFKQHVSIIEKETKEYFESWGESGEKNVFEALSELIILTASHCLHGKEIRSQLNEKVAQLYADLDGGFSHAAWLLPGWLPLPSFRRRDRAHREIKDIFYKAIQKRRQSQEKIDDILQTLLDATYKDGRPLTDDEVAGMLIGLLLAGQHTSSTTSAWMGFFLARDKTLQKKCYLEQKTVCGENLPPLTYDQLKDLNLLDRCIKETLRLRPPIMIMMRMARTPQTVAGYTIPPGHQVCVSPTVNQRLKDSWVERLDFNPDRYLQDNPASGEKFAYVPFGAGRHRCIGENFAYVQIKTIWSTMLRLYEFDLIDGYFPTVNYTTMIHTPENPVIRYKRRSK

SMILES | IC50 [1] [µM] | Kd [2] [µM]
CCC(C)n1ncn(-c2ccc(N3CCN(c4ccc(OCC5COC(Cn6cncn6)(c6ccc(Cl)cc6Cl)O5)cc4)CC3)cc2)c1=O (centres unmarked) [itraconazole] | > 50 | –
Clc1ccc(COC(Cn2ccnc2)c2ccc(Cl)cc2Cl)c(Cl)c1 (centres unmarked) [miconazole] | – | < 0.1
